# Data: US7807828B2, “Olanzapine analogs and methods of use thereof” (Hypnion, Inc., priority 2005, dated 2010)
# What was measured:
# Alpha 1 = Alpha 1 binding assay; details: Table 7A; unit inferred
# Method: (§1) Binding assays were performed using various sleep-inducing agents and derivatives selected from those listed in Table 1 in competitive binding assays with known standards for the H1 histamine receptor, and the M1, M2, and M3 muscarinic receptors, alpha 1 and alpha 2 receptors, D1 and D2 receptors, 5HT2a, 5HT2b, 5HT2c, 5HT2c, and 5HT7 receptors.
# 5HT2a (hctx) = biological target: T1, 5HT2a (hctx) (Homo sapiens, UniProt P28223); assay: 5HT2a (hctx) binding assay; details: Table 7B; unit inferred
# T1 construct: (hctx); from tissue; host or cells: human cortex (my reading of 'hctx')
# T1 sequence (P28223 whole entry): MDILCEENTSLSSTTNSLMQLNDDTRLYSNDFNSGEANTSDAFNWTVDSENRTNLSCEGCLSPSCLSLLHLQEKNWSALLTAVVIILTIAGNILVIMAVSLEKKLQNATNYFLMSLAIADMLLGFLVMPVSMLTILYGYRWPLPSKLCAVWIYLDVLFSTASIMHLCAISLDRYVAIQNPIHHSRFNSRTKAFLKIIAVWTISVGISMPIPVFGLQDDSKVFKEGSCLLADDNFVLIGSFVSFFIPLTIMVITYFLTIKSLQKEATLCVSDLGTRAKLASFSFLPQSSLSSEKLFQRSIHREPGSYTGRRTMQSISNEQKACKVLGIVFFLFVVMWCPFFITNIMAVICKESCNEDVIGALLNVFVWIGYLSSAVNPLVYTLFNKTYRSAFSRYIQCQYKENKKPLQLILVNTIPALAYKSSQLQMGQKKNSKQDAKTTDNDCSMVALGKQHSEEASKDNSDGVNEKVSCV
# adult, male Wistar rats = assay: Sleep-wakefulness monitoring (SCORE-2000, EEG/EMG) in rats; format: in vivo, rat; details: minutes; for LONGEST UNINTERRUPTED SLEEP BOUT 10 mg/kg / NREM CUMULATION 10 mg/kg: oral bolus at CT-18, 10 mg/kg
# Method: Sleep-wakefulness, locomotor activity and body temperature are monitored in male Wistar rats treated with a test compound (i.e., olanzapine analog) initially at a concentration of 10 mg/kg. Higher and lower doses are assayed for select compounds (e.g., as high as 45 mg/kg, and as low as necessary to establish a no-effect dose). Treatments are administered at CT-18, the peak of the activity dominated period (6 hours after lights-off), and produced soporific (sleep-inducing) effects characterized by increased non-REM sleep time, increased sleep continuity, but without evidence of REM sleep inhibition or rebound insomnia.
# Sleep-wakefulness, locomotor activity and body temperature were monitored in vivo with various compounds of the invention. Adult, male Wistar rats (250 g at time of surgery, Charles River Laboratories, Wilmington Mass.) were anesthetized (2% isoflourane in medical grade oxygen) and surgically prepared with a cranial implant to permit chronic electro-encephalogram (EEG) and electromyogram (EMG) recording. Body temperature and locomotor activity were monitored via a miniature transmitter (Mini-Mitter, Bend, Oreg.) surgically placed in the abdomen. The cranial implant consisted of stainless steel screws (two frontal (+3.2 AP from bregma, ±2.0 ML) and two occipital (−6.9 AP, ±5.5 ML)) for EEG recording. Two Teflon®-coated stainless steel wires were positioned under the nuchal trapezoid muscles for EMG recording. All leads were soldered to a miniature connector prior to surgery, and gas sterilized in ethylene oxide. The implant assembly was affixed to the skull with dental acrylic. A minimum of three weeks was allowed for surgical recovery.
# Each rat was permanently housed in its own individual recording cage located within separate, ventilated compartments of custom-designed stainless steel cabinets. Each cage was enhanced with a filter-top riser and low-torque swivel-commutator. Food and water were available ad libitum. A 24-hr light-dark cycle (12 hours light, 12 hours dark) was maintained throughout the study. Animals were undisturbed for at least 48 hours before and after treatments.
# Sleep and wakefulness were determined using “SCORE-2000™” (Hypnion, Worcester, Mass.)—an internet-based sleep-wake and physiological monitoring system. The system monitored amplified EEG (bandpass 1-30 Hz), integrated EMG (bandpass 10-100 Hz), body temperature and non-specific locomotor activity (LMA) via telemetry, and drinking activity, continuously and simultaneously. Arousal states were classified on-line as non-REM (NREM) sleep, REM sleep, wake, or theta-dominated wake every 10 seconds. Total drinking and locomotor activity counts, and body temperature were quantitiated and recorded each minute, using EEG feature extraction and pattern-matching algorithms. […] The classification algorithm used individually-taught EEG-arousal-state templates, plus EMG criteria to differentiate REM sleep from theta-dominated wakefulness, plus behavior-dependent contextual rules (e.g., if the animal was drinking, it is awake). Drinking and locomotor activity intensity (LMA) were recorded every 10 seconds, while body temperature was recorded each minute. Locomotor activity was detected by a telemetry receiver (Mini-Mitter) beneath the cage. Telemetry measures (LMA and body temperature) were not part of the scoring algorithm; thus, sleep-scoring and telemetry data were independent measures.
# Compounds were administered at CT-18, the peak of the activity-dominated period, sufficient time was allowed to view the time course of the treatment effect before lights-on (6 hours post-treatment). Compounds were suspended in sterile 0.25% or 0.5% methylcellulose (1-2 ml/kg). Treatments were administered orally as a bolus.
# A parallel group study design was employed. […]
# D3 = D3 (Homo sapiens, UniProt P35462); assay: D3 binding; details: Table 7A, printed in column D2 (h); unit inferred
# Chain of D3 (P35462 whole entry): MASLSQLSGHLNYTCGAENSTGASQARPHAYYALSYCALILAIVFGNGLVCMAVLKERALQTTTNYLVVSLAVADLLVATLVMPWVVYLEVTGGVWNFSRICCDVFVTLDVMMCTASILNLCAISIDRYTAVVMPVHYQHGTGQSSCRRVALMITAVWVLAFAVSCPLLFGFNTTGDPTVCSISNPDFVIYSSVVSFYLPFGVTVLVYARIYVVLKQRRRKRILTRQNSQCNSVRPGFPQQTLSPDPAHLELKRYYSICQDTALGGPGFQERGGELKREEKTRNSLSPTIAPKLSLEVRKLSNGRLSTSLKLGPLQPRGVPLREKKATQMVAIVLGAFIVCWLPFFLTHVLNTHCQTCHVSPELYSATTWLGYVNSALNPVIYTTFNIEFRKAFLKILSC
# 5HT2a (h R) = 5HT2a (h R) (Homo sapiens, UniProt P28223); assay: 5HT2a (h R) binding assay; details: Table 7B; unit inferred
# Chain of 5HT2a (h R) (P28223 whole entry): as the sequence (P28223 whole entry) above
# Method: as §1
# In vitro binding assays are used to determine 5HT2a binding. These binding assays measure the ability of benzisoxazole analogs to displace known standards from the 5HT2a, 5HT2b, 5HT2c, and 5HT7. A decrease in the binding of the compounds to the M1-M3 receptors, relative to the binding of the compound to the 5HT2a receptor, is an indication of the greater specificity of the compound for the 5HT2a receptor over the muscarinic receptor. […] 5HT2a binding is determined as described for example in British Journal of Pharmacology (1995) 115, 622-628.
# Alpha 1B (h) = biological target: T2, Alpha 1B (h) (Homo sapiens, UniProt P35368); assay: Alpha 1B (h) binding assay; details: Table 7A; unit inferred
# T2 sequence (P35368 1-520): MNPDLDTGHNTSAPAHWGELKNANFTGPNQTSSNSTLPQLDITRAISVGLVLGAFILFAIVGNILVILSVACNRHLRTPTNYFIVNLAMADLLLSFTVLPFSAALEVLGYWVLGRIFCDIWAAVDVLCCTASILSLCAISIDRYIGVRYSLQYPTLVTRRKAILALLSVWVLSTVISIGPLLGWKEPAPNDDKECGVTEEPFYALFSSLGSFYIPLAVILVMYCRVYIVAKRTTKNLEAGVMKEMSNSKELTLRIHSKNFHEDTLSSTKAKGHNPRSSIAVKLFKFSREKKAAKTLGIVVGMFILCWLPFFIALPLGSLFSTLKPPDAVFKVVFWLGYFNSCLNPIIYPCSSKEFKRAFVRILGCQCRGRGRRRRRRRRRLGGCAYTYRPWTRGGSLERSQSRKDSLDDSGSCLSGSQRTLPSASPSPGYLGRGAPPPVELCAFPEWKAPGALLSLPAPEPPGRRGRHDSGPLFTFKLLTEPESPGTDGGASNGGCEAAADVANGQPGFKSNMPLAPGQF
# Method: as §1
SMILES,Ki (Alpha 1) [µM],Ki (5HT2a (hctx)) [µM],"LONGEST UNINTERRUPTED SLEEP BOUT 10 mg/kg (adult, male Wistar rats) [min]","NREM CUMULATION 10 mg/kg (adult, male Wistar rats) [min]",Ki (D3) [µM],"LONGEST UNINTERRUPTED SLEEP BOUT 3 mg/kg (adult, male Wistar rats; oral bolus at CT-18, 3 mg/kg) [min]","LONGEST UNINTERRUPTED SLEEP BOUT 30 mg/kg (adult, male Wistar rats; oral bolus at CT-18, 30 mg/kg) [min]","NREM CUMULATION 30 mg/kg (adult, male Wistar rats; oral bolus at CT-18, 30 mg/kg) [min]",Ki (5HT2a (h R)) [µM],"LONGEST UNINTERRUPTED SLEEP BOUT 0.3 mg/kg (adult, male Wistar rats; oral bolus at CT-18, 0.3 mg/kg) [min]","LONGEST UNINTERRUPTED SLEEP BOUT 1 mg/kg (adult, male Wistar rats; oral bolus at CT-18, 1 mg/kg) [min]","NREM CUMULATION 3 mg/kg (adult, male Wistar rats; oral bolus at CT-18, 3 mg/kg) [min]",Ki (Alpha 1B (h)) [µM]
Cc1cc2c(s1)Nc1ccccc1N=C2N1CCN(CC2(C(=O)O)CC2)CC1 [Compound 91],1.96,0.0591,10.7 ± 3.2,26 ± 4,,,,,,,,,
CCc1cc2c(s1)Nc1ccccc1N=C2N1CCN(CC(C)(C)C(=O)O)CC1 [Compound 90],,0.314,,48 ± 8,0.226,12.3 ± 4.0,,,,,,,
Cc1cc2c(s1)Nc1ccccc1N=C2N1CCN(CCC(=O)O)CC1 [Compound 92],2.06,0.232,3.1 ± 2.5,10 ± 4,,,5.7 ± 1.8,27 ± 4,,,,,
CC(C)c1cc2c(s1)Nc1ccccc1N=C2N1CCN(CC(C)(C)C(=O)O)CC1 [Compound 94],,0.073,19.9 ± 3.7,47 ± 6,,,,,,,,,
Cc1cc2c(s1)Nc1ccccc1N=C2N1CCN(CC(C)(C)C(=O)O)CC1 [Compound 46],,0.639,15.5 ± 4.1,42 ± 5,,10.8 ± 3.2,,,0.2,3.9,11.8 ± 2.7,38 ± 4,2.1
